# Data published in patent US20100310579A1, “METHOD FOR INHIBITING ANGIOGENESIS OR FOR TREATMENT OF CANCER” (Faron Ventures Oy, priority 2007, published 2010).
# Experiments:
# Format in all cases: in vivo
# [1] = system: Luciferase-containing B16 melanoma cells; assay: B16 melanoma tumor growth in mice (bioluminescence imaging, tumor volume)
# Experimental: In the melanoma model, age- and sex-matched VAP-1 deficient and wt C57/B16 mice were used (Stolen, C. M., F. Marttila-Ichihara, K. Koskinen, G. G. Yegutkin, R. Turja, P. Bono, M. Skurnik, A. Hanninen, S. Jalkanen, and M. Salmi. 2005. Immunity 22:105-115). Luciferase-containing B16 melanoma cells were purchased from Xenogen. Tumor cells (4×10^5 in 200 μl) were injected subcutaneously into the flanks of isoflurane anesthesized mice. Immediately thereafter, a substrate for the luciferase (D-luciferin sodium salt, Synchem, Kassel, Germany; 150 mg/kg i.p.) was injected, and 10 min later the light generated was recorded using bioluminescence imaging (IVIS 50 workstation, Xenogen). The signal intensities were quantified as the photon counts using the Living Image software (Xenogen). […] The growth of tumors was then followed for 10 d, and at the indicated time points, the animals were re-subjected to the bioluminescence imaging. The diameter of the tumor was also measured using an electronic caliber (Mitutoyo, Japan). The volume of the tumor was approximated using the formula: 0.5×(longest diameter)×(shortest diameter). In the lymphoma model, EL-4 cells were injected into the abdominal area (10×10^6 cells/mouse in 200 μl of RPMI1640. tumor growth was followed using the electronic caliber.
# (§1) The tumor model was established as above. The animals were treated every second day with anti-VAP-1 mAb (7-106+7-88, 100 μg each/mouse) or with a negative control mAb HB151 (200 μg/mouse, ip) (Merinen, M., H. Irjala, M. Salmi, I. Jaakkola, A. Hanninen, and S. Jalkanen. 2005. e. Am. J. Pathol. 166:793-800). The antibodies were produced in serum and BSA-free medium, concentrated, and dialyzed against PBS. Another group of mice were treated with the VAP-1 inhibitor SZE 5302 (50 mg/kg, ip, daily) or with the vehicle (saline) (Koskinen, K., P. J. Vainio, D. J. Smith, M. Pihlavisto, S. Yla-Herttuala, S. Jalkanen, and M. Salmi. 2004. Blood 103:3388-3395). The growth of the tumor was then followed using bioluminescence imaging or volume measurements as described above.
# [2] = system: CD31-positive vessels in melanoma tumors; assay: CD31-positive vessels in melanoma tumors (immunohistochemistry, neoangiogenesis); details: melanoma tumors resected d10, treated vs control mice, FIG. 3
# Experimental: as §1
# At the end of the experiment, tumors were excised from the mice and processed for immunohistochemical staining. Anti-mouse CD31 mAb (MEC13.3, IHC formula, 1:300 dilution; Pharmingen) and a negative control mAb (9B5) were used for indirect immunoperoxidase stainings. The sections were counterstained with hematoxylin-eosin, and mounted in Depex. In certain cases, formalin-fixed, paraffin embedded sections were stained with HE. The CD31-positive vessels or vessels in HE-stained sections were enumerated by counting the number of vessels in the whole tumor area using a 400× magnification. […]
# [3] = system: myeloid-derived suppressor cells (MDSC) in melanoma tumors; assay: CD11b-positive myeloid-derived suppressor cells in melanoma tumors (microscopic counting); details: wt mice treated with inhibitor vs vehicle, FIG. 6
# Source text: FIG. 6. VAP-1 selectively supports recruitment of pro-angiogenic myeloid-derived suppressor cells in melanoma tumors. CD11b-positive cells were quantified by microscopic counting in wt and VAP-1 deficient mice and in wt treated with vehicle or SZE5302 inhibitor. Data (mean±SEM) are from 9 mice per group, ** p<0.01.
# At the end of the experiment, tumors were excised from the mice and processed for immunohistochemical staining. Anti-mouse CD31 mAb (MEC13.3, IHC formula, 1:300 dilution; Pharmingen) and a negative control mAb (9B5) were used for indirect immunoperoxidase stainings. The sections were counterstained with hematoxylin-eosin, and mounted in Depex. In certain cases, formalin-fixed, paraffin embedded sections were stained with HE. The CD31-positive vessels or vessels in HE-stained sections were enumerated by counting the number of vessels in the whole tumor area using a 400× magnification. Sections were also stained with CD11b and Gr-1 antibodies.
# EL-4 lymphoma cells = assay: EL-4 lymphoma growth in mice (tumor volume); details: wt mice, s.c. EL-4 lymphoma, treated vs control, FIG. 5b
# Experimental: FIG. 5. Defective migration of myeloid-derived suppressor cells (MDSC), angiogenesis and growth of lymphoma in VAP-1 deficient mice (a, b). EL-4 lymphoma cells were injected subcutaneously into (a) wt and VAP-1 deficient mice and (b) control and SZE5302 treated mice, and the growth of the lymphomas (volume) was measured kinetically. VAP-1 activity in control and SZE5302 treated mice was measured using enzyme assay (c) Immunohistochemical stainings of (d) VAP-1 and (e) CD31 expression in tumor vessels in EL-4 lymphoma grown in wt and VAP-1 −/− mice. Some positive vessels are pointed out by arrows. Lymphoma cells also express low levels of CD31. Bar 50 μm. The numbers of (f) CD31 positive vessels and (g) CD11b positive cells was determined using immunohistochemistry. […]
# In the melanoma model, age- and sex-matched VAP-1 deficient and wt C57/B16 mice were used (Stolen, C. M., F. Marttila-Ichihara, K. Koskinen, G. G. Yegutkin, R. Turja, P. Bono, M. Skurnik, A. Hanninen, S. Jalkanen, and M. Salmi. 2005. Immunity 22:105-115). […] Immediately thereafter, a substrate for the luciferase (D-luciferin sodium salt, Synchem, Kassel, Germany; 150 mg/kg i.p.) was injected, and 10 min later the light generated was recorded using bioluminescence imaging (IVIS 50 workstation, Xenogen). The signal intensities were quantified as the photon counts using the Living Image software (Xenogen). […]
compound,measurement,setting,value
CN(N)[C@H]1Cc2ccccc2[C@@H]1O [SZE5302],tumor volume (physical measurement),"[1]; day 7, wt mice, B16 melanoma, 50 mg/kg ip daily",significant reduction
same,melanoma size,"[1]; day 10, wt mice, B16 melanoma, 50 mg/kg ip daily",clearly smaller
same,tumor growth,"[1]; wt mice, s.c. B16 melanoma, 50 mg/kg ip daily vs vehicle, FIG. 2B",significant decrease in tumor growth
same,number of CD31+ positive (new) vessels in the tumor,[2],significantly fewer
same,number of MDSC in the melanomas,[3],strongly reduced
same,tumor growth (lymphoma volume),EL-4 lymphoma cells,strongly inhibited tumor growth
